Measurements: paper PMC5330312, “Design and engineering of water-soluble light-harvesting protein maquettes” (Chemical Science, 2016)
One block for each compound: values may come before it.

How the values were obtained:
[1] = test system: His-containing maquette; assay: Absorption spectra of porphyrin with His-containing maquette; format: binding; settings: 4 μM porphyrin, 2 μM maquette
Text: (§1) The structural requirements for tetrapyrrole self-assembly in aqueous solution were first tested with Zn tetraphenyl porphyrins. The solubility in polar and non-polar environments was adjusted through combinations of hydrophobic and hydrophilic groups at the meso positions. Zn tetrapyrrole pigments discussed in this text are abbreviated with bold numbers, with full chemical names given in the Experimental section and structures illustrated in the figures. […] Thus, one non-polar edge of a Zn porphyrin was sufficient to provide facile binding.
(§2) Blue, green and red spectra correspond to no maquette, His-free maquette or His-containing maquette, respectively. Panel (A) and (B) show spectra for 4 μM porphyrins (1) or (2) respectively with 2 μM maquette, when present.
(§3) Protein solutions were prepared in CHES buffer (20 mM, 150 mM KCl, pH 9.0). Binding was monitored by UV/Vis Soret band absorbance on a Varian Cary-50 spectrophotometer at room temperature in a 1 cm path quartz cuvette. Secondary structure was monitored by CD spectroscopy (Aviv Model 410) at 25 °C with a 1 mm path quartz cuvette. Thermal denaturation was followed by monitoring the ellipticity at 222 nm every 5 °C after 15 minutes of equilibration. Melting temperatures were calculated using a Boltzmann equation with one term for each observed transition.

[2] = test system: His-free control maquette; assay: Absorption spectra of porphyrin with His-free control maquette; format: binding; settings: 4 μM porphyrin, 2 μM maquette
Text: as §1, §2, §3

[3] = Water solubility of the tetrapyrrole (qualitative); format: physicochemical
[4] = test system: His-containing four-helix maquette (histidines at positions 7 and 112); assay: Cofactor binding titration into His maquette, UV/Vis spectra analysed by SVD; settings: for comparative binding affinity, in words: maquette, Fig. 4; for Kd: CHES buffer pH 9.0, 25 °C, SVD fit of spectral titration, read-out: Kd (dissociation constant for each His site)
Text: To determine the acceptable range and pattern of hydrophobic vs. hydrophilic perimeters for Zn porphyrins, we synthesized all permutations of phenyl and carboxyphenyl tetra meso substituents (Fig. 3 and 4). The visible spectral changes that occurred as these porphyrins were titrated into a His maquette solution were fitted to a simple binding model with a single dissociation constant (K d) for each His site using singular value decomposition.[16] […] At least one hydrophobic and one hydrophilic group substitution is necessary for porphyrin ligating to the maquettes with nanomolar affinities.
as §3
Pigment stock solutions were weighed out and solubilized in dimethylsulfoxide to give concentrations of 1 mM Zn porphyrins, 1 mM chlorin (11), 500 μM chlorin (12), and 2 mM chlorin (13). Binding of Zn porphyrins shift the Soret peak from 422 nm to 432 nm. Binding of chlorins shift the Soret band from 415 nm to 423 nm for (12), 411 nm to 425 nm for (13), and 409 nm to 417 nm for (11). Dissociation constants (K d values) were determined as follows. To 1 ml of protein solution at 25 °C, 1 μl additions of 0.2 (porphyrin) or 0.1 (chlorin) equivalent aliquots were added successively to obtain a spectrum from 300 to 700 nm. At 1 equivalent of cofactor the DMSO concentration is 1%. Titrations typically ended at 4 equivalents of cofactor. […] The amplitudes of the first two principle components as a function of total pigment added fit well to a mathematical model of a single dissociation constant for each protein binding site to generate fit spectral extinction coefficients at each wavelength for the unbound and bound pigment spectra as well as values and error estimates for the dissociation constants.

[5] = test system: protein maquette; assay: Stopped-flow mixing of tetrapyrrole and maquette (binding kinetics); settings: for binding speed, in words: stopped-flow mixing
Experimental: Tetrapyrrole and protein were added to separate syringes of an OLIS RSM 1000 stopped flow spectrophotometer, which takes a full visible spectrum every millisecond through a 2 cm flow cell after rapid (∼2 ms deadtime) mixing. Temperature was controlled with a Fischer-Scientific IsoTemp 3031 water bath. Individual wavelengths were selected for further kinetic analysis. All experiments were performed in triplicate, and the data were averaged together for further analysis.
Title: Design and engineering of water -soluble light-harvesting protein maquettes Goutham Kodali, Joshua A. Mancini, Lee A. Solomon, Tatiana Esipova, Nicholas Roach, Christopher J. Hobbs, Pawel Wagner, Olga A. Mass, Kunche Aravindu, Jonathan E. Barnsley, Keith C. Gordon, David L. Officer, P. Leslie Dutton and Christopher C. Moser*
Figure S1: Proliferating carbox ylic groups on the 15- porph yrin substituent leads to faster […]
Conditions: 2 µ M of protein maquette in 20 mM CHES, 150 mM KCl mixed with one equivalent of porphyrin, either 5- phen yl-15-carbox y phen ylporph yrin [9] (red) or 5- phen yl -15- Newkome phen ylporphyrin [10] (green).
Normalized absorbance i ncreas e with time in seco nds.

[6] = test system: maquette; assay: Thermal denaturation of maquette by circular dichroism at 222 nm; settings: 2 μM maquette with 2 equivalents of cofactor
Experimental: Fig. 7 Thermal stability of the maquette increased upon tetrapyrrole binding. Circular dichroism at 222 nm monitors alpha helical folding for 2 μM maquette without (blue) or with (red) 2 equivalents of (11) as a function of temperature.
as §3

Compound: O=S(=O)([O-])c1ccc(-c2c3nc(c(-c4ccc(S(=O)(=O)[O-])cc4)c4ccc([n-]4)c(-c4ccc(S(=O)(=O)[O-])cc4)c4nc(c(-c5ccc(S(=O)(=O)[O-])cc5)c5ccc2[n-]5)C=C4)C=C3)cc1.[Zn+2].[Zn+2].[Zn+2] [compound 1, Zn(II) 5,10,15,20-tetra(4-sulphonatophenyl)porphyrin]
association with His-containing maquette (Soret spectral change) [1]: does not associate with either maquette
association with His-free maquette (Soret spectral change) [2]: does not associate with either maquette
water solubility, in words [3]: highly water-soluble

Compound: O=S(=O)([O-])c1ccc(-c2c3nc(c(-c4ccc(S(=O)(=O)[O-])cc4)c4ccc([n-]4)c(-c4ccc(S(=O)(=O)[O-])cc4)c4nc(c(-c5ccccc5)c5ccc2[n-]5)C=C4)C=C3)cc1.O=S(=O)([O-])c1ccc(-c2c3nc(c(-c4ccc(S(=O)(=O)[O-])cc4)c4ccc([n-]4)c(-c4ccc(S(=O)(=O)[O-])cc4)c4nc(c(-c5ccccc5)c5ccc2[n-]5)C=C4)C=C3)cc1.[Zn+2].[Zn+2].[Zn+2].[Zn+2].[Zn+2] [compound 2, Zn(II) 5,10,15-tri(4-sulphonatophenyl)-5-phenylporphyrin]
association with His-containing maquette (Soret spectral change) [1]: indicative of histidine ligation
association with His-free maquette (Soret spectral change) [2]: partial association of the tetrapyrrole with the maquette

Compound: O=C(O)c1ccc(-c2c3nc(c(-c4ccc(C(=O)O)cc4)c4ccc([n-]4)c(-c4ccc(C(=O)O)cc4)c4nc(c(-c5ccc(C(=O)O)cc5)c5ccc2[n-]5)C=C4)C=C3)cc1.[Zn+2] [compound 8, Zn(II) 5,10,15,20-tetra(4-carboxyphenyl)porphyrin]
comparative binding affinity, in words [4]: too weak to measure accurately

Compound: O=C(O)c1ccc(-c2c3nc(cc4ccc([n-]4)c(-c4ccccc4)c4nc(cc5ccc2[n-]5)C=C4)C=C3)cc1.[Zn+2] [compound 9, Zn(II) 5-phenyl-15-(p-carboxyphenyl)porphyrin]
time for binding equilibrium to reach completion ([5]; stopped flow, 2 µM maquette, one equivalent of porphyrin, 20 mM CHES, 150 mM KCl): 20 min

The next lines start with results.

comparative binding affinity, in words [4]: too weak to measure accurately
Compound: C1=Cc2nc1c(-c1ccccc1)c1ccc([n-]1)c(-c1ccccc1)c1nc(c(-c3ccccc3)c3ccc([n-]3)c2-c2ccccc2)C=C1.[Zn+2] [compound 3, Zn(II) 5,10,15,20-tetraphenylporphyrin, reference compound]

affinity relative to (5), (6) and (7) ([4]; His maquette, estimated): about two orders of magnitude tighter
Compound: O=C(O)c1ccc(-c2c3nc(c(-c4ccccc4)c4ccc([n-]4)c(-c4ccccc4)c4nc(c(-c5ccccc5)c5ccc2[n-]5)C=C4)C=C3)cc1.[Zn+2] [compound 4, Zn(II) 5-4-(carboxyphenyl)-10,15,20-triphenylporphyrin]

Kd ([4]; His maquette): 80 ± 10 nM
thermal mid point transition of α-helical structure (Tm) upon chlorin binding ([6]; 46 °C without cofactor): 61 °C
Compound: Cc1ccc(-c2c3nc(cc4ccc([nH]4)c(-c4ccc(C(=O)O)cc4)c4nc(cc5ccc2[nH]5)C(C)(C)C4)C=C3)cc1 [compound 11, 15-(4-carboxyphenyl)-17,18-dihydro-18,18-dimethyl-5-p-tolylporphyrin]
structure stabilization corresponding to the Tm shift [6]: 6.8 kcal mol^–1
binding speed, in words [5]: binds much faster than the similarly substituted porphyrin (9)

lowering of affinity relative to (11) ([4]; His maquette, Kd of (12) vs (11)): 4.5 fold
Compound: CC1(C)Cc2nc1cc1cc(C#Cc3ccccc3)c(cc3nc(cc4ccc([n-]4)c2-c2ccc(C(=O)O)cc2)C=C3)[n-]1.[Zn+2] [compound 12, Zn(II) 15-(4-carboxyphenyl)-17,18-dihydro-18,18-dimethyl-3-(phenylethynyl)porphyrin]

Kd ([4]; His maquette): 4 ± 3 nM
Compound: C=Cc1c(C)c2[n]3c1=CC1=[N+]4C(=Cc5c(C)c6c7[n]5[Zn-2]34[N+]3=C(C=2)[C@@H](C)[C@H](CCC(=O)O)C3=C7[C@@H](C(=O)OC)C6=O)C(CC)=C1C (stereo partly drawn) [compound 13, Zn pheophorbide a]

Kd ([4]; His maquette): 250 ± 47 nM
binding speed, in words [5]: few ms timescale
Compound: Zn(II) 5-phenyl-15-(p-carboxyphenyl)porphyrin with first generation Newkome dendrimer [compound 10]
water solubility, in words [3]: substantially increased the water solubility
